Data published in patent US6737240B1, “Methods of screening for a multi-drug resistance conferring peptide” (Rigel Pharmaceuticals, Inc., priority 1999, dated 2004).

How the values were obtained:
[1] = tested on: MDR-1; experiment: MDR-1 immunostaining (UIC2-PE) and flow cytometry; format: cell-based
Description: HeLa cells infected with different retroviral vectors, stained with monoclonal antibody MDR1 (UIC2) PE conjugate and analyzed on a fluorescence-activated cell sorting (FACS) machine. […] The middle left panel is the 8.2 peptide control showing no effect upon MDR expression. […] The right hand panels verify that the selected clone RGP8.5.1 regulates MDR expression according to induced vector expression. Upper right is the HeLa control; middle right is vector expression in absence of presumed peptide expression; lower right is after derepression of peptide expression showing induced MDR expression correlating with GFP (peptide) expression.
The cells were stained with monoclonal antibody MDR1 (UIC2) PE conjugate and analyzed on FACS.
Immunostaining and flow cytometry. 2.5×10^5 Hela cells were washed once with PBS and then incubated with […] PBS buffer containing 0.1% BSA plus […] monoclonal MDR-1 antibody (UIC2)-Phycoerythrin (PE) conjugate (Immunotech) at room temperature for 15 minutes. Subsequently, the cells were washed once with 2 ml PBS buffer, resuspended in 0.5 ml PBS buffer and analyzed on FACS.

[2] = tested on: HeLa cells; experiment: Flow cytometric analysis of cellular DNA content (cell cycle); format: cell-based; settings: peptide positive (GFP gated) vs peptide negative cells
Experimental: RG8.5 peptide expressing cells were growing to 50% confluence. The cells were harvested and processed for flow cytometry of DNA. In the DNA content profile, the bold line represents the peptide negative cells and the grayed area curve represents the RG8.5 peptide positive cells. Cells were gated for GFP expression, FIG. 6B top, as indicated.
Flow cytometric analysis of cellular DNA content. The RG8.5 expressing cells were grown in the logarithmic phase. The cells were harvested, washed once with PBS and fixed in 2% paraformaldehyde pH7.4 at 4° C. for 30 minutes. After washing with 1 %BSA-PBS, the cells were resuspended in PI staining buffer containing […] RNase, 50 ug/ml PI, 0.1% Triton X100 in 0.1% Na Citrate pH7.4 buffer, RT for 30 min, and analyzed on FACS.

[3] = tested on: hsp70; experiment: Western blot of endogenous protein levels in RGP8.5 HeLa clone; format: cell-based; settings: irrespective of expression of the peptide
Experimental: (§1) FIG. 6 depicts that inhibition of proteasome activity by RGP8.5 arrests cell cycle progression. […] To examine the effect of RGP8.5 on the endogenous protein expression, RGP8.5 expressing HeLa cells were incubated with doxycycline (200 ng/ml) for 4 days before harvesting for western analysis. Equal amount of cell lysate were loaded on each lane, separated by SDS-PAGE and immunoblotted with antiserum against GFP (Kodak), hsp70 and cyclin B1 (Santa Cruz).
(§2) Transfection, immunoprecipitation and western blot. A calcium phosphate transfection method was used for all transfections of test constructs into 293T cells. Cells were lysed in […] of TNT buffer (20 mM Tris-HCl pH7.5, 200 mM NaCl and 1% Triton-X100), supplemented with 1 mM DTT and protease cocktail (Boehringer Mannheim). The cell extracts were incubated with […] anti-flag antibody conjugated beads (Babco) at 4° C. The beads were spun down and washed with […] TNT buffer for four times. For immunoprecipitation with biotinylated RG8.5 peptide, 3 10^6 Hela cells were lysed in a buffer containing 20 mM HEPES pH7.4, 150 mM NaCl and 1% NP40 and precleaned with a Streptavidin column (Pierce, Rockford, Ill.) to reduce non-specific binding. 3 ml of biotinylated RG8.5 peptide (1 mg/ml) in DMSO was added to the cell lysate and allowed to mix overnight at 4 ° C. […]

[4] = tested on: cyclin B; experiment: as above; format: cell-based; settings: RGP8.5 expressing cells compared with GFP negative cells
Experimental: as §1, §2

[5] = biological target: T1, XAPC7 (Homo sapiens, UniProt O14818); experiment: Biotinylated RGP8.5 peptide affinity purification from HeLa cell extract; format: binding; settings: streptavidin beads
T1 construct: endogenous in cells; host or cells: HeLa cell extract
Experimental: (§3) HeLa cell extract were pre-cleared with a streptavidin column. The biotinylated RG8.5 peptide was then added to the cell lysate and allowed to mix overnight at 4° C. Next day streptavidin agarose beads were incubated with the cell extract for 3 hours at 4° C. After washing the beads five times with lysis buffer, the associated proteins were eluted with 2× protein sample buffer, resolved on SDS-PAGE and detected with monoclonal antibody against Zeta and XAPC7 proteasome subunits.
as §2

[6] = biological target: T2, Zeta (Homo sapiens, UniProt P28066); experiment: as above; format: binding; settings: streptavidin beads
T2 construct: endogenous in cells; host or cells: HeLa cell extract
Experimental: as §3, §2

MGEFLIVKVVWGRMVCWV-LVVRRFVLVIVLENSLSSNQGPP [RGP8.5]
regulating the MDR expression levels as compared to MG132 [1]: more effective | MDR-1 expression as a function of peptide expression (FACS) ([1]; HeLa cells, GFP as surrogate peptide expression indicator): apparently regulated | cell cycle distribution [2]: accumulate at G2/M | endogenous hsp70 protein level [3]: same level | endogenous cyclin B protein level [4]: slightly elevated levels | binding of endogenous XAPC7 subunit [5]: shown to bind | binding of endogenous Zeta subunit [6]: shown to bind
